Results: ChEMBL document CHEMBL6103652, “Niacin Ester Derivative of Brefeldin A as a Potential Dual-Target Arf1/BMX Inhibitor for Bladder Cancer” (J Nat Prod, 2025)
≈ marks a conversion by molar mass, not a printed value. Calls of active or inactive are those of the source. No cut-off for these calls is given here.

Tests used:
MB49 = test: Antitumor immunity against mouse MB49 cells implanted in male C57BL/6 mouse assessed as increase in infiltration of CD8+T cells at 1 mg/kg,iv bid measured after 14 days immunofluorescence based analysis; format: functional, organism-based; conditions: time 14.0 day
L1210 = test: Antiproliferative activity against mouse L1210 cells assessed as inhibition of cell proliferation measured after 72 hrs by MTT assay; format: functional, cell-based; conditions: L1210, 72 h
[1] = Solubility of the compound in aqueous saline; format: physicochemical
Bel-7402 = test: Antiproliferative activity against human Bel-7402 cells assessed as inhibition of cell proliferation measured after 72 hrs by MTT assay; format: functional, cell-based; conditions: Bel-7402, 72 h
[2] = Antiproliferative activity against […] MB49 cells assessed as inhibition of cell proliferation measured after 72 hrs by MTT assay; format: functional, cell-based; conditions: MB49, 72 h
T-24 [3] = test: Inhibition of cell migration in human T24 cells at 0.125 uM incubated for 12 hrs by scratch assay (reference value: 66 %); format: functional; conditions: T-24, 12 h
[4] = Selectivity index, ratio of IC50 for cytotoxicity against human LO2 cells to IC50 for antiproliferative activity against human T24 cells; format: toxicity, cell-based; conditions: LO2 cells and T24 cells, read-out: Ratio IC50
[5] = Solubility of the compound in Solutol HS-15; format: physicochemical
T-24 [6] = test: Inhibition of colony formation in human T24 cells at 0.25 uM measured after 10 days by crystal violet staining based analysis; format: functional, cell-based; conditions: time 10.0 day
T-24 [7] = test: Induction of cell cycle arrest in human T24 cells assessed as accumulation of cells at S phase at 0.50 uM incubated for 24 hrs by RNase A/Propidium Iodide staining based flow cytometry analysis (reference value: 31.27 %); format: functional; conditions: dose 0.5 µM
T-24 [8] = test: Inhibition of cell migration in human T24 cells at 0.50 uM incubated for 24 hrs by scratch assay (reference value: 88 %); format: functional; conditions: T-24, 24 h
T-24 [9] = test: Inhibition of cell migration in human T24 cells at 0.25 uM incubated for 12 hrs by scratch assay (reference value: 66 %); format: functional
T-24 [10] = test: Induction of cell cycle arrest in human T24 cells assessed as accumulation of cells at G1 phase at 0.13 uM incubated for 24 hrs by RNase A/Propidium Iodide staining based flow cytometry analysis (reference value: 43.80 %); format: functional
T-24 [11] = test: Inhibition of colony formation in human T24 cells at 0.50 uM measured after 10 days by crystal violet staining based analysis relative to control; format: functional; conditions: T-24, 240 h, time 10 day
[12] = Cytotoxicity against human LO2 cells measured after 72 hrs by MTT assay; format: toxicity, cell-based, L02
[13] = Volume of distribution at steady state in Sprague-Dawley rat at 5 mg/kg, iv measured upto 24 hrs; format: ADME, organism-based; conditions: in vivo, read-out: Vdss
T-24 [14] = test: Inhibition of cell migration in human T24 cells at 0.125 uM incubated for 24 hrs by scratch assay (reference value: 88 %); format: functional; conditions: T-24, 24 h
[15] = Clearance in Sprague-Dawley rat at 5 mg/kg, iv measured upto 24 hrs; format: ADME, organism-based; conditions: in vivo
[16] = Toxicity in ICR mouse assessed as body weight change at 688 mg/kg, IG administered once for 14 days; format: organism-based; conditions: in vivo, po, 336 h, time 14 day
[17] = Toxicity in male C57BL/6 mouse allografted with mouse MB49 cells assessed as body weight change at 1 mg/kg,iv bid measured after 14 days; format: organism-based; conditions: in vivo, 336 h, time 14 day

IC50 (L1210): 6.18 µM
solubility [1]: < 1000 µg/mL
IC50 (Bel-7402): 460 nM
solubility [5]: 2000 µg/mL (≈ 5.19 mM)
Vd [13]: 0.59 L/kg
clearance [15]: 68 mL/min/kg
Structure (SMILES): C[C@H]1CCC/C=C/[C@@H]2C[C@H](O)C[C@H]2[C@H](OC(=O)c2cccnc2)/C=C/C(=O)O1
Activity (MB49): Active
IC50 [2]: 4.77 µM
wound closure at 0.125 µM (T-24 [3]): 22%
selectivity ratio [4]: 3.59
inhibition (T-24 [6]): Active; Entirely Suppressed Clone Formation Was Observed
Activity (T-24 [7]): 19.52%
wound closure at 0.5 µM (T-24 [8]): 17%
wound closure at 0.25 µM (T-24 [9]): 17%
Activity (T-24 [10]): 47.36%
inhibition at 0.5 µM (T-24 [11]): 100%
IC50 at 72 h [12]: 790 nM
wound closure at 0.125 µM (T-24 [14]): 44%
Activity [16]: Non-toxic
Activity [17]: Non-toxic
